Source: patent US10413559B2, “Method for treating demyelinating disease” (OCHANOMIZU UNIVERSITY, priority 2013, dated 2019)

How the values were obtained:
[1] = system: demyelination model mice (0.2% cuprizone); experiment: Myelin level by Black Gold staining in cuprizone demyelination model mice (Example 1); assay type: in vivo, C57BL/6 mice; conditions: intraperitoneal 40 μg/200 μl saline/day for 5 weeks, FIG. 2
Procedure: 10-week-old male C57BL/6 mice were fed with a mash feed containing 0.2% cuprizone for five weeks until the most significant demyelination occurred, so as to produce demyelination model mice. cPA and carba-cPA (cPA) powders were each dissolved in a saline, and the obtained solutions were each administered intraperitoneally at a dose of 40 μg/200 μl saline/day to the mice every day for 5 weeks. On the other hand, to negative control mice, a saline (200 μl/day) was intraperitoneally administered in the same manner as described above. The mice, to which the test compound had been administered, were subjected to perfusion fixation with 4% paraformaldehyde, and sections to be used for frozen tissue staining (30 μm) were then prepared in a cryostat (FIG. 1). The level of myelin in each mouse was measured by Black Gold staining, and the demyelination level was then measured based on the stained level (FIG. 2).

[2] = system: GFAP, Iba1, PDGFRa, P2rx7, Nlrp3 gene expression in corpus callosum; experiment: Genetic analysis using Q-PCR of corpus callosum tissues; assay type: in vivo, C57BL/6j mice; conditions: cuprizone mice; intraperitoneal 1.6 mg/kg/day for 5 weeks; FIG. 6-8
Source text: 10-week-old male C57BL/6j mice (Tokyo Laboratory Animals Science Co., Ltd., Tokyo, Japan) were fed by the discretionary intake of a mash feed (CLEA Japan, Inc.) that contained 0.2% cuprizone (biscyclohexanone oxalyl hydrazone; Merck KGaA, Darmstadt, Germany) for 5 weeks until demyelination progressed most, so as to produce demyelination model mice involving demyelination caused by oligodendrocyte-specific cell death.
To obtain mouse corpus callosum tissues to be used for genetic analysis, mouse brain was removed, and the corpus callosum tissues were then collected from the brain. […]
mRNA was extracted from the frozen corpus callosum tissues using ISOGEN (Nippon Gene Co., Ltd., Tokyo, Japan), was then dissolved in RNase free molecular grade water (Takara Bio Inc., Shiga, Japan), and was then preserved at −80° C. […] Gene expression was detected using 7900 Sequence Detection System (Applied Biosystems). […] The gene expression level was calculated by a ΔΔCT method. Data were analyzed by a relative quantification method. A relative change in the gene expression was analyzed, while setting the gene expression level in a control mouse at 100%.

[3] = system: demyelination model mice (0.2% cuprizone); experiment: Test of motor function impairment using rotarod; assay type: in vivo, C57BL/6j mice; conditions: intraperitoneal 1.6 mg/kg/day for 5 weeks, 28 rpm, 300 seconds, FIG. 9, FIG. 10
Source text: 10-week-old male C57BL/6j mice (Tokyo Laboratory Animals Science Co., Ltd., Tokyo, Japan) were fed by the discretionary intake of a mash feed (CLEA Japan, Inc.) that contained 0.2% cuprizone (biscyclohexanone oxalyl hydrazone; Merck KGaA, Darmstadt, Germany) for 5 weeks until demyelination progressed most, so as to produce demyelination model mice involving demyelination caused by oligodendrocyte-specific cell death. The cPA used in the experiment was the same cPA (16:0) as that used in Example 1, and the carba-cPA was 2 ccPA (16:1). The cPA and 2 ccPA were chemically purified (Biochimica et Biophysica Acta, Emi Nozaki 2011), and were then dissolved in a 0.9% saline. […] The locomotion time on the rod was evaluated by measuring the time required for the mice to fall from the rotating rod within a record time of 300 seconds. Moreover, even after the mice had fallen from the rod, they were forced to continue their activity immediately after the falling, so that a total number of the activities from falling from the rod to holding on to the rod for 300 seconds (a number of falls and flips) was measured and evaluated. The data of the test of motor function impairment were analyzed according to a non-parametric method using a Kruskal-Wallis test. All of other data were analyzed according to a one-way ANOVA method using a Newman-Keulis test. […]

CCCCCCCCCCCCCCCC(=O)OCC1COP(=O)(O)O1 (stereo not drawn) [cPA]
level of myelin (Black Gold staining) versus control mouse [1]: higher than the level of myelin in a control mouse
nerve inflammation (gene expression by Q-PCR) [2]: nerve inflammation is suppressed
motor function impairment (rotarod) [3]: motor function impairment is improved
